Laboratory results as given in patent publication US11247972B2, “Compositions and methods for treating toxoplasmosis, cryptosporidiosis, and other apicomplexan protozoan related diseases” (University of Washington through its Center for …, priority 2010, dated 2022).

Columns and labels:
[1] = biological target: PfCDPK1 (Plasmodium falciparum (isolate 3D7), UniProt P62344); test: biochemical; details: read-out: PfCDPK1 (% inhibition @ 3 uM)
[2] = biological target: PfCDPK4 (Plasmodium falciparum (isolate 3D7), UniProt Q8IBS5); test: biochemical; details: read-out: PfCDPK4 (% inhibition @ 3 uM)

Structure (SMILES) | inhibition at 3 µM [1] | inhibition at 3 µM [2]
Cc1ccc(S(=O)(=O)Nc2ccc(-c3nn(-c4ccccc4)c4ncnc(N)c34)cc2)cc1 [Compound 75, N-(4-(4-amino-1-phenyl-1H-pyrazolo[3,4-d]pyrimidin-3-yl)phenyl)-4-methylbenzenesulfonamide] | 75% | 5%
Cn1ncc2cc(-c3nn(CC4CCNCC4)c4ncnc(N)c34)ccc21 [Compound 121] | 93% | 93%
Nc1ncnc2c1c(Cc1cccc3ccccc13)nn2C1CCNCC1 [Compound 5g, 3-(naphthalen-1-ylmethyl)-1-(piperidin-4-yl)-1H-pyrazolo[3,4-d]pyrimidin-4-amine] | 56% | 75%
CC(C)n1nc(-c2cccc(OCc3ccccc3)c2)c2c(N)ncnc21 [Compound 7aa, 3-(3-(benzyloxy)phenyl)-1-isopropyl-1H-pyrazolo[3,4-d]pyrimidin-4-amine] | 75% | 18%
O=C(NCCC1CCCNC1)Nc1nc2ccc(C(=O)c3ccccc3)cc2[nH]1 (stereo not drawn) [Compound 91] | 73% | 59%
NCCCC(=O)Nc1nc2ccc(C(=O)c3ccccc3)cc2[nH]1 [Compound 103] | 75% | 58%
N[C@@H](Cc1ccc(O)cc1)C(=O)Nc1nc2ccc(C(=O)c3ccccc3)cc2[nH]1 [Compound 109] | 54% | 30%
Nc1ncnc2c1c(I)nn2CC1CCNCC1 [Compound 98] | 85% | 9%
CC(C)n1nc(-c2ccc3cc(OCc4ccccc4Cl)ccc3c2)c2c(N)ncnc21 [Compound 46, 3-(6-(2-chlorobenzyloxy)naphthalen-2-yl)-1-isopropyl-1H-pyrazolo[3,4-d]pyrimidin-4-amine] | 95% | 52%
O=C(CC1CCNCC1)Nc1nc2ccc(C(=O)c3ccccc3)cc2[nH]1 [Compound 113] | 65% | 61%
NCCCCCC(=O)Nc1nc2ccc(C(=O)c3ccccc3)cc2[nH]1 [Compound 105] | 71% | 76%
N[C@@H](Cc1c[nH]cn1)C(=O)Nc1nc2ccc(C(=O)c3ccccc3)cc2[nH]1 [Compound 111] | 63% | 41%
CC(C)(C)OC(=O)NCCC(=O)Nc1nc2ccc(C(=O)c3ccccc3)cc2[nH]1 [Compound 93] | 64% | 49%
CC(C)C(=O)Nc1ccc(-c2nn(C(C)(C)C)c3ncnc(N)c23)cc1 [Compound 59, N-(4-(4-amino-1-tert-butyl-1H-pyrazolo[3,4-d]pyrimidin-3-yl)phenyl)isobutyramide] | 98% | 79%
CC(C)n1nc(-c2cccc(OCc3ccccc3Cl)c2)c2c(N)ncnc21 [Compound 21, 3-(3-(2-chlorobenzyloxy)phenyl)-1-isopropyl-1H-pyrazolo[3,4-d]pyrimidin-4-amine] | 68% | 9%
COc1ccc2cc(-c3nn(CC4CCNCC4)c4ncnc(N)c34)ccc2c1 [Compound 28, 3-(6-methoxynaphthalen-2-yl)-1-(piperidin-4-ylmethyl)-1H-pyrazolo[3,4-d]pyrimidin-4-amine] | 92% | 99%
Nc1ncnc2c1c(-c1ccccc1)nn2CC1CCNCC1 [Compound 145] | 93% | 63%
CC(C)COc1ccc2cc(-c3nn(CC4CCNCC4)c4ncnc(N)c34)ccc2c1 [Compound 44, 3-(6-isobutoxynaphthalen-2-yl)-1-(piperidin-4-ylmethyl)-1H-pyrazolo[3,4-d]pyrimidin-4-amine] | 100% | 97%
Cc1ccc(-c2nn(C(C)C)c3ncnc(N)c23)cc1C [Compound 7h, 3-(3,4-dimethylphenyl)-1-isopropyl-1H-pyrazolo[3,4-d]pyrimidin-4-amine] | 83% | 85%
CC(C)c1nc(-c2cnc3ccccc3c2)c2c(N)nccn12 [Compound 9, 3-isopropyl-1-(quinolin-3-yl)imidazo[1,5-a]pyrazin-8-amine] | 76% | 88%
COC(=O)Nc1nc2ccc(C(O)c3ccccc3)cc2[nH]1 (stereo not drawn) [Compound 82] | 56% | 4%
CC(C)n1nc(-c2ccc3cc(OCc4cccc(Cl)c4)ccc3c2)c2c(N)ncnc21 [Compound 47, 3-(6-(3-chlorobenzyloxy)naphthalen-2-yl)-1-isopropyl-1H-pyrazolo[3,4-d]pyrimidin-4-amine] | 91% | 51%
CC(C)n1nc(-c2ccc3cc(OCc4ccc(CC(F)(F)F)c(Cl)c4)ccc3c2)c2c(N)ncnc21 [Compound 51, 3-(6-(3-chloro-4-(2,2,2-trifluoroethyl)benzyloxy)naphthalen-2-yl)-1-isopropyl-1H-pyrazolo[3,4-d]pyrimidin-4-amine] | 86% | 92%

Structure (SMILES) | inhibition at 3 µM [1] | inhibition at 3 µM [2]
Cc1cc(-c2nn(C(C)(C)C)c3ncnc(N)c23)ccc1-c1ccccc1 [Compound 133] | 79% | 26%
COc1ccc(-c2nn(C(C)C)c3ncnc(N)c23)cc1OC(C)C [Compound 23, 3-(3-isopropoxy-4-methoxyphenyl)-1-isopropyl-1H-pyrazolo[3,4-d]pyrimidin-4-amine] | 75% | 11%
CC(C)n1nc(-c2ccc3cc(OCc4ccc(C(C)(C)C)cc4)ccc3c2)c2c(N)ncnc21 [Compound 54, 3-(6-(4-tert-butylbenzyloxy)naphthalen-2-yl)-1-isopropyl-1H-pyrazolo[3,4-d]pyrimidin-4-amine] | 101% | 77%
O=C(NCCO)Nc1nc2ccc(C(=O)c3ccccc3)cc2[nH]1 [Compound 90] | 77% | 64%
COc1ccc(-c2nn(CC3CCNCC3)c3ncnc(N)c23)cc1C [Compound 144] | 95% | 94%
Cn1ccc2cc(-c3nc(C(C)(C)C)n4ccnc(N)c34)ccc21 [Compound 70, 3-tert-butyl-1-(1-methyl-1H-indol-5-yl)imidazo[1,5-a]pyrazin-8-amine] | 100% | 96%
Nc1ncnc2c1c(-c1ccc(Cl)cc1)nn2CC1CCNCC1 [Compound 45, 3-(4-chlorophenyl)-1-(piperidin-4-ylmethyl)-1H-pyrazolo[3,4-d]pyrimidin-4-amine] | 101% | 82%
CC(C)n1nc(Cc2cccc3ccccc23)c2c(N)ncnc21 [Compound 3, 1-isopropyl-3-(naphthalen-1-ylmethyl)-1H-pyrazolo[3,4-d]pyrimidin-4-amine] | 78% | 76%
Cc1ccc(C)c(COc2ccc3cc(-c4nn(C(C)C)c5ncnc(N)c45)ccc3c2)c1 [Compound 48, 3-(6-(2,5-dimethylbenzyloxy)naphthalen-2-yl)-1-isopropyl-1H-pyrazolo[3,4-d]pyrimidin-4-amine] | 84% | 10%
COc1ccc(-c2nn(C(C)(C)C)c3ncnc(N)c23)cc1C [Compound 132] | 96% | 96%
Cc1ccccc1COc1ccc2cc(-c3nn(C(C)C)c4ncnc(N)c34)ccc2c1 [Compound 49, 1-isopropyl-3-(6-(2-methylbenzyloxy)naphthalen-2-yl)-1H-pyrazolo[3,4-d]pyrimidin-4-amine] | 88% | 22%
Cc1cccc(-c2nn(C(C)(C)C)c3ncnc(N)c23)c1 [Compound 134] | 89% | 87%
CC(C)Oc1ccc2cc(-c3nn(C(C)C)c4ncnc(N)c34)ccc2c1 [Compound 11, 3-(6-isopropoxynaphthalen-2-yl)-1-isopropyl-1H-pyrazolo[3,4-d]pyrimidin-4-amine] | 93% | 87%
NCCC(=O)Nc1nc2ccc(C(=O)c3ccccc3)cc2[nH]1 [Compound 94] | 71% | 51%
NC(=O)Cn1nc(Cc2cccc3ccccc23)c2c(N)ncnc21 [Compound 5c, 2-(4-amino-3-(naphthalen-1-ylmethyl)-1H-pyrazolo[3,4-d]pyrimidin-1-yl)acetamide] | 45% | 23%
CC(C)n1nc(-c2ccc3cc(OCc4ccccc4)ccc3c2)c2c(N)ncnc21 [Compound 40, 3-(6-(benzyloxy)naphthalen-2-yl)-1-isopropyl-1H-pyrazolo[3,4-d]pyrimidin-4-amine] | 101% | 84%
CC(C)COc1ccc2cc(-c3nn(C(C)C)c4ncnc(N)c34)ccc2c1 [Compound 43, 3-(6-isobutoxynaphthalen-2-yl)-1-isopropyl-1H-pyrazolo[3,4-d]pyrimidin-4-amine] | 100% | 78%
NCCCCNC(=O)Nc1nc2ccc(C(=O)c3ccccc3)cc2[nH]1 [Compound 128] | 79% | 64%
Nc1ncnc2c1c(Cc1cccc3ccccc13)nn2CC1CCCCC1 [Compound 17, 1-(cyclohexylmethyl)-3-(naphthalen-1-ylmethyl)-1H-pyrazolo[3,4-d]pyrimidin-4-amine] | 44% | 5%
Cn1ccc2cc(-c3nn(CC4CCNCC4)c4ncnc(N)c34)ccc21 [Compound 57, 3-(1-methyl-1H-indol-5-yl)-1-(piperidin-4-ylmethyl)-1H-pyrazolo[3,4-d]pyrimidin-4-amine] | 85% | 82%
CCOc1ccc2cc(-c3nn(C(C)(C)C)c4ncnc(N)c34)ccc2c1 [Compound 137] | 95% | 95%
Nc1ncnc2c1c(-c1ccc3ccccc3c1)nn2CC1CCNCC1 [Compound 147, 3-(naphthalen-2-yl)-1-(piperidin-4-ylmethyl)-1H-pyrazolo[3,4-d]pyrimidin-4-amine] | 100% | 99%
